Results reported in US10435361B2, “Kinase inhibitors” (Topivert Pharma Limited, priority 2013, dated 2019).

Key:
Format in all cases: cell-based
PBMCs [1] = test: Cell mitosis assay in PBMCs; details: Homo sapiens, PBMC, 5 μg/mL
Experimental: Peripheral blood mononucleocytes (PBMCs) from healthy subjects are separated from whole blood (Quintiles, London, UK) using a density gradient (Histopaque®-1077, Sigma-Aldrich, Poole, UK). The PBMCs (3 million cells per sample) are subsequently treated with 2% PHA (phytohaemagglutinin, Sigma-Aldrich, Poole, UK) for 48 hr, followed by a 20 hr exposure to varying concentrations of test compounds. At 2 hr before collection, PBMCs are treated with demecolcine (0.1 μg/mL; Invitrogen, Paisley, UK) to arrest cells in metaphase. To observe mitotic cells, PBMCs are permeabilised and fixed by adding Intraprep (50 μL; Beckman Coulter, France), and stained with anti-phospho-histone 3 (0.26 ng/L; #9701; Cell Signalling, Danvers, Mass.) and propidium iodide (1 mg/mL; Sigma-Aldrich, Poole, UK) as previously described (Muehlbauer P. A. and Schuler M. J., Mutation Research, 2003, 537:117-130). Fluorescence is observed using an ATTUNE flow cytometer (Invitrogen, Paisley, UK), gating for lymphocytes.

PBMCs [2] = test: LPS-induced TNFα/IL-8 release in PBMC cells; details: Homo sapiens, assay (b), read-out: IC50 Values for Inhibition of Cytokine Release PBMCs IL-8
Experimental: Peripheral blood mononuclear cells (PBMCs) from healthy subjects are separated from whole blood using a density gradient (Lymphoprep, Axis-Shield Healthcare). The PBMCs are seeded in 96 well plates and treated with compounds at the desired concentration for 2 hours before addition of 1 ng/mL LPS (Escherichia Coli 0111:B4 from Sigma Aldrich) for 24 hours under normal tissue culture conditions (37° C., 5% CO2). The supernatant is harvested for determination of IL-8 and TNFα concentrations by sandwich ELISA (Duo-set, R&D systems) and read on the fluorescence microplate reader (Varioskan® Flash, ThermoFisher Scientific).

PBMCs [3] = test: IL-2 and IFN gamma release in CD3/CD28 stimulated PBMC cells; details: Homo sapiens, assay (c)
Experimental: PBMCs from healthy subjects are separated from whole blood using a density gradient (Lymphoprep, Axis-Shield Healthcare). Cells are added to a 96 well plate pre-coated with a mixture of CD3/CD28 monoclonal antibodies (0.3 μg/mL eBioscience and 3 μg/mL BD Pharmingen respectively). Compound at the desired concentration is then added to the wells and the plate left for 3 days under normal tissue culture conditions. […] The IC50 is determined from the dose response curve.

[4] = read-out: IC50 Values for Inhibition of Cytokine Release PBMCs IFNγ
[5] = read-out: IC50 Values for Inhibition of Cytokine Release PBMCs IL-2

SMILES	inhibition at 5 µg/mL (PBMCs [1])	IC50 (PBMCs [2])	IC50 (PBMCs [3]; [4])	IC50 (PBMCs [3]; [5])
COc1cc(Nc2nccc(Oc3ccc(NC(=O)Nc4cc(C(C)(C)C)cc(NS(C)(=O)=O)c4OC)c4ccccc34)n2)cc(OCCOCCOCCN(C)C)c1 [Example 15, N-(5-(tert-Butyl)-3-(3-(4-((2-((3-(2-(2-(2-(dimethylamino)ethoxy)ethoxy)ethoxy)-5-methoxyphenyl)amino)pyrimidin-4-yl)oxy)naphthalen-1-yl)ureido)-2-methoxyphenyl)-methanesulfonamide]	97.5%	0.9 nM	–	–
COCCOCCOCCOc1cc(Nc2nccc(Oc3ccc(NC(=O)Nc4cc(C(C)(C)C)cc(-c5nnco5)c4OC)c4ccccc34)n2)cc(OC)c1 [Example 59, 1-(5-(tert-Butyl)-2-methoxy-3-(1,3,4-oxadiazol-2-yl)phenyl)-3-(4-((2-((3-methoxy-5-(2-(2-(2-methoxyethoxy)ethoxy)ethoxy)phenyl)amino)pyrimidin-4-yl)oxy)naphthalen-1-yl)urea]	55.3%	3.3 nM	7.6 nM	58.6 nM
COc1cc(Nc2cc(Oc3ccc(NC(=O)Nc4cc(C(C)(C)C)cc(NS(C)(=O)=O)c4OC)c4ccccc34)ccn2)cc(C(=O)NCCN2CCS(=O)(=O)CC2)c1 [85(k), 3-[[4-[[4-[[5-tert-Butyl-3-(methanesulfonamido)-2-methoxyphenyl]-carbamoylamino]-1-naphthyl]oxy]-2-pyridyl]amino]-N-[2-(1,1-dioxo-1,4-thiazinan-4-yl)ethyl]-5-methoxybenzamide]	41%	1.7 nM	9.3 nM	57.1 nM
COCCOCCOCCOc1cc(Nc2cc(Oc3ccc(NC(=O)Nc4cc(C(C)(C)C)cc(C(=O)NCCN(C)C)c4OC)c4ccccc34)ccn2)cc(OC)c1 [Example 76, 5-(tert-Butyl)-N-(2-(dimethylamino)ethyl)-2-methoxy-3-(3-(4-((2-((3-methoxy-5-(2-(2-(2-methoxyethoxy)ethoxy)ethoxy)phenyl)amino)pyridin-4-yl)oxy)naphthalen-1-yl)ureido)-benzamide]	91.3%	1.9 nM	–	–
C#Cc1cc(Nc2cc(Oc3ccc(NC(=O)Nc4cc(C(C)(C)C)cc(NS(C)(=O)=O)c4OC)c4ccccc34)ccn2)cc(C(=O)N[C@H](C)COCCOCCOC)c1 [Example 68, (R)-3-((4-((4-(3-(5-(tert-Butyl)-2-methoxy-3-(methylsulfonamido)phenyl)ureido)-naphthalen-1-yl)oxy)pyridin-2-yl)amino)-5-ethynyl-N-(1-(2-(2-methoxyethoxy)ethoxy)-propan-2-yl)benzamide]	–	2.8 nM	68.8 nM	220 nM
COc1cc(Nc2cc(Oc3ccc(NC(=O)Nc4cc(C(C)(C)C)cc(NS(C)(=O)=O)c4OC)c4ccccc34)ccn2)cc(C(=O)NCCN2CCOC(C)(C)C2)c1 [85(m), 3-[[4-[[4-[[5-tert-Butyl-3-(methanesulfonamido)-2-methoxyphenyl]-carbamoylamino]-1-naphthyl]oxy]-2-pyridyl]amino]-N-[2-(2,2-dimethylmorpholin-4-yl)ethyl]-5-methoxybenzamide]	26.4%	1.8 nM	–	–
COCCOCCOCCS(=O)(=O)c1cc(Nc2cc(Oc3ccc(NC(=O)Nc4cc(C(C)(C)C)cc(NS(C)(=O)=O)c4OC)c4ccccc34)ccn2)cc(OC)c1 [Example 85(y), 1-[5-tert-Butyl-3-(methanesulfonamido)-2-methoxyphenyl]-3-[4-[2-[3-methoxy-5-[2-[2-(2-methoxyethoxy)ethoxy]ethylsulfonyl]anilino]pyridin-4-yl]oxy-1-naphthyl]urea]	20.1%	1.7 nM	–	–
COCCOCCOCCOc1cc(Nc2nccc(Oc3ccc(NC(=O)Nc4cc(C(C)(C)C)cc(NS(=O)(=O)N5CCOCC5)c4OC)c4ccccc34)n2)cc(OC)c1 [83(b), N-(5-(tert-butyl)-2-methoxy-3-(3-(4-((2-((3-methoxy-5-(2-(2-(2-methoxyethoxy)ethoxy)-ethoxy)phenyl)amino)pyrimidin-4-yl)oxy)naphthalen-1-yl)ureido)phenyl)morpholine-4-sulfonamide]	–	3.7 nM	–	109 nM
COCCOCCOCCOc1cc(Nc2nccc(Oc3ccc(NC(=O)Nc4cc(C(C)(C)C)cc(C(=O)NCC(=O)OC)c4OC)c4ccccc34)n2)cc(OC)c1 [Example 37, Methyl 2-(5-(tert-butyl)-2-methoxy-3-(3-(4-((2-((3-methoxy-5-(2-(2-(2-methoxyethoxy)-ethoxy)ethoxy)phenyl)amino)pyrimidin-4-yl)oxy)naphthalen-1-yl)ureido)benzamido)-acetate]	45.9%	2.2 nM	–	–
CCOc1c(NC(=O)Nc2ccc(Oc3ccnc(Nc4cc(OC)cc(OCCOCCOCCOC)c4)n3)c3ccccc23)cc(C(C)(C)C)cc1NS(C)(=O)=O [Example 69, N-(5-(tert-butyl)-2-ethoxy-3-(3-(4-((2-((3-methoxy-5-(2-(2-(2-methoxyethoxy)ethoxy)-ethoxy)phenyl)amino)pyrimidin-4-yl)oxy)naphthalen-1-yl)ureido)phenyl)methane-sulfonamide]	–	1.6 nM	2.2 nM	–
COc1cc(Nc2nccc(Oc3ccc(NC(=O)Nc4cc(C(C)(C)C)cc(NS(C)(=O)=O)c4OC)c4ccccc34)n2)cc(OCCOCCOCCN2CCOCC2)c1 [Example 18, N-(5-(tert-Butyl)-2-methoxy-3-(3-(4-((2-((3-methoxy-5-(2-(2-(2-morpholinoethoxy)ethoxy)-ethoxy)phenyl)amino)pyrimidin-4-yl)oxy)naphthalen-1-yl)ureido)phenyl)methanesulfonamide]	92.7%	1 nM	–	–
COCCOCCNC(=O)c1cc(Nc2cc(Oc3ccc(NC(=O)Nc4cc(C(C)(C)C)cc(NS(C)(=O)=O)c4OC)c4ccccc34)ccn2)cc(OC)c1 [85(u), 3-[[4-[[4-[[5-tert-Butyl-3-(methanesulfonamido)-2-methoxyphenyl]-carbamoylamino]-1-naphthyl]oxy]-2-pyridyl]amino]-5-methoxy-N-[2-(2-methoxyethoxy)-ethyl]benzamide]	38.4%	1.4 nM	–	–
C#Cc1cc(Nc2cc(Oc3ccc(NC(=O)Nc4cc(C(N)=O)cc(C(C)(C)C)c4)c4ccccc34)ccn2)cc(C(=O)NCCOCCOCCOC)c1 [Example 62, 3-((4-((4-(3-(3-(tert-Butyl)-5-carbamoylphenyl)ureido)naphthalen-1-yl)oxy)pyridin-2-yl)amino)-5-ethynyl-N-(2-(2-(2-methoxyethoxy)ethoxy)ethyl)benzamide]	–	4.6 nM	32.2 nM	48.7 nM
COc1cc(Nc2nccc(Oc3ccc(NC(=O)Nc4cc(C(C)(C)C)cc(NS(C)(=O)=O)c4OC)c4ccccc34)n2)cc(OCCOCCOCCO)c1 [83(c), N-(5-(tert-butyl)-3-(3-(4-((2-((3-(2-(2-(2-hydroxyethoxy)ethoxy)ethoxy)-5-methoxyphenyl)-amino)pyrimidin-4-yl)oxy)naphthalen-1-yl)ureido)-2-methoxyphenyl)methanesulfonamide]	57.1%	1.8 nM	–	–
COc1cc(Nc2cc(Oc3ccc(NC(=O)Nc4cc(C(C)(C)C)cc(NS(C)(=O)=O)c4OC)c4ccccc34)ccn2)cc(C(=O)NCCN2C[C@@H](C)O[C@@H](C)C2)c1 [85(n), 3-[[4-[[4-[[5-tert-Butyl-3-(methanesulfonamido)-2-methoxyphenyl]-carbamoylamino]-1-naphthyl]oxy]-2-pyridyl]amino]-N-[2-[(2R,6S)-2,6-dimethylmorpholin-4-yl]ethyl]-5-methoxybenzamide]	26.6%	1.9 nM	–	–
COCCOCCOCCNC(=O)c1cc(Nc2nccc(Oc3ccc(NC(=O)Nc4cc(C(C)(C)C)cc(NS(C)(=O)=O)c4OC)c4ccccc34)n2)cc(OC)c1 [Example 7, 3-((4-((4-(3-(5-(tert-Butyl)-2-methoxy-3-(methylsulfonamido)phenyl)ureido)naphthalen-1-yl)oxy)pyrimidin-2-yl)amino)-5-methoxy-N-(2-(2-(2-methoxyethoxy)ethoxy)ethyl)-benzamide]	–	1.1 nM	–	–
COc1cc(Nc2cc(Oc3ccc(NC(=O)Nc4cc(C(C)(C)C)cc(NS(C)(=O)=O)c4OC)c4ccccc34)ccn2)cc(C(=O)NCCN2CCCC2)c1 [83(d), 3-((4-((4-(3-(5-(tert-butyl)-2-methoxy-3-(methylsulfonamido)phenyl)ureido)naphthalen-1-yl)oxy)pyridin-2-yl)amino)-5-methoxy-N-(2-(pyrrolidin-1-yl)ethyl)benzamide]	–	12.1 nM	–	–
